# Earlier results as cited in patent publication US6534508B2, “Methods and compositions for treating infection using optically pure (S)-lomefloxacin” (priority 1991, dated 2003).
# Tested on: M. tuberculosis
# Conditions: 11 strains resistant to conventional drug therapy; cited from earlier work
compound,measurement,value
"CCn1cc(C(=O)O)c(=O)c2cc(F)c(N3CCNC(C)C3)c(F)c21 (racemic) [LM, 1-ethyl-6,8-difluoro-1,4-dihydro-7-(3-methyl-lpiperazinyl)-4-oxo-3-quinolinecarboxylic acid]",MIC50,1.0 µg/mL
same,MIC90,1.1 µg/mL
